The record followed here is PubChem BioAssay (NCI).

What all share (assay): DTP human tumour cell line panel, 48 h
The test system of assay [1] is LOX IMVI melanoma.
For assay [2], the system named is SF-539 CNS.
Assay [3] has as its system MCF7 breast.
Assay [4] relates to NCI-H522 lung.
Assay [5] concerns SW-620 colon.
The test system of assay [6] is A549 NSCLC.
The subject of assay [7] is HOP-62 NSCLC.
Assay [8] deals with NCI-H23 lung.
Assay [9] has as its system HT29 colon.
Assay [10] relates to IGROV1 ovarian.

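Five concentrations, 48 hours, 96-well plates. TGI marks complete inhibition of growth.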 Some results are limits rather than exact numbers.

As to `COc1ccc(NC(=O)CC(=O)n2nc(C)c(N=Nc3cccc(C)c3)c2C)cc1`, the TGI in assay [1], in assay [2], in [3], in [4], in assay [5] and in assay [6] was > 100 µM throughout. In addition, the TGI in [7], in assay [8] and in assay [9] was > 100 µM each time.

On to `CNC(=S)N/N=C(\C(=N/NC(=S)NC)c1ccccn1)c1ccccn1`, for which the TGI in assay [1] was > 100 µM; in assay [2] it was > 100 µM; in [3], > 100 µM; in assay [4], 72.8 µM; in assay [5], > 100 µM; in assay [6], > 100 µM. Moreover, the TGI in assay [7] was > 53.5 µM; in assay [8], > 68.5 µM; in [9] it was > 100 µM; in assay [10], > 100 µM.

Take `CCCC(O)c1cn(C(NC(=O)c2ccccc2)P(=O)(OCC)OCC)nn1` (stereo not drawn): the concentration for total growth inhibition (TGI) in assay [1], in assay [2], in [3], in [4], in assay [5] and in [6] was > 100 µM each time. For the same compound, the TGI in assay [7], in assay [8], in [9] and in assay [10] was > 100 µM in each case.

`CC(=O)OCc1cncn1S(=O)(=O)c1ccc(C)cc1`: the TGI in assay [1], in assay [2], in assay [3], in assay [4], in [5] and in assay [6] was > 100 µM each time. In addition, the TGI in assay [7], in [8], in [9] and in [10] was > 100 µM each time.

Consider `CN(CCO)CCCC1COc2ccccc2O1` (stereo not drawn), for which the total growth inhibition concentration (TGI) in assay [2], in [3], in [4], in assay [5], in [6] and in assay [7] was > 100 µM throughout. Besides, the TGI in assay [8], in assay [9] and in assay [10] was > 100 µM in each case.

Turning to `CCOC(=O)C(CC(C)C)NC(=O)CSc1nnc(COc2ccc(Cl)cc2)n1-c1ccccc1` (stereo not drawn), the TGI was found to be 28.9 µM in [1]; 42.3 µM in assay [2]; 35 µM in [3]; 49.7 µM in [5]; 45.9 µM in assay [6]; 36.8 µM in assay [7]. Moreover, the TGI was 29.5 µM in assay [8], 32.7 µM in assay [9] and 29.2 µM in [10].

Consider `CCOC(=O)c1c(-c2ccc(Cl)cc2)c(C#N)c(=S)n(C2OC(COC(C)=O)C(OC(C)=O)C(OC(C)=O)C2OC(C)=O)c1-c1ccccc1` (stereo not drawn), for which the TGI in assay [1], in assay [2], in assay [3], in [5], in assay [6] and in [7] was > 100 µM each time. In addition, the total growth inhibition concentration (TGI) in [8], in assay [9] and in assay [10] was > 100 µM throughout.

In the case of `CN(C)c1ccc(C=C2C(=O)N(c3ccccc3)N(c3ccccc3)C2=O)cc1`, the TGI in assay [1], in assay [3], in assay [4], in [5], in assay [6] and in [7] was > 100 µM each time. In addition, the TGI in assay [8], in [9] and in assay [10] was > 100 µM each time.

For `CCCCCCCC(CC(=O)NC(CO)C(=O)NC(CO)CC(C)C)OC(=O)CC(CCCCCCC)OC(=O)CC(CCCCCCC)OC1OC(C)C(O)C(OC2OC(C)C(O)C(O)C2OC(C)=O)C1O` (stereo not drawn), the TGI was 23.5 µM in assay [2]; 23.8 µM in [3]; 26.8 µM in [4]; 22.2 µM in [5]; 25.9 µM in assay [6]; 27.1 µM in [7]. The concentration for total growth inhibition (TGI) in [8] amounted to 22 µM; in assay [9], 13.7 µM; in assay [10], 23 µM.

For `COc1cc(C2=NNC(=O)c3ccccc3N2c2nc(-c3cccs3)nc3ccc(Br)cc23)cc(OC)c1OC`, the TGI in assay [2] is 24.2 µM; in [3], 7.28 µM; in [4], > 100 µM; in [5] it was > 100 µM; in assay [6], > 100 µM; in assay [7], 59.2 µM. For the same compound, the TGI in assay [8] was 53.4 µM; in assay [9], 35.9 µM; in assay [10], > 100 µM.

With `CCOC(=O)C[n+]1cccc(C2(c3cc4ccccc4[nH]3)OCCO2)c1`, the TGI in assay [1], in [2], in [3], in [5], in assay [6] and in assay [7] was > 100 µM in each case. Further, the TGI in assay [8], in assay [9] and in assay [10] was > 100 µM throughout.

On to `COc1cc(C2c3cc4c(cc3OC(Nc3ccccc3)C2C)OCO4)cc(OC)c1O` (stereo not drawn), for which the TGI was found to be 8.9 µM in assay [2]; 24.6 µM in assay [3]; 9.16 µM in assay [4]; 16.3 µM in assay [5]; 19.2 µM in [6]; 33.5 µM in [8]. The TGI was determined as 18.1 µM in [9] and 48 µM in assay [10].

For the compound `C=C1C(=O)O[C@H]2[C@H]3O[C@@H](C[C@@H]12)[C@@]1(C)CC[C@H](O1)[C@H](C)CCC[C@H]3C`, the TGI in [1] was determined as 2.94 µM; in [3] it was 3.98 µM; in assay [4], 2.84 µM; in assay [5], 4.26 µM; in assay [6], 5.09 µM; in assay [7], 16.3 µM. Further, the TGI amounted to 3.18 µM in assay [8], 3.04 µM in assay [9] and 2.74 µM in assay [10].

On to `O=C(CCCCCCCCC(=O)N1C(=O)CC(=O)N(c2ccccc2)C1=S)N1C(=O)CC(=O)N(c2ccccc2)C1=S`, for which the total growth inhibition concentration (TGI) in assay [1], in assay [3], in assay [4], in assay [6], in assay [7] and in [8] was > 100 µM each time. In assay [9], the TGI was > 100 µM.

For the compound `CCCCCCCCCCCCc1ccc(S(=O)(=O)O)cc1.[Zn+2]`, the concentration for total growth inhibition (TGI) in [1], in [2], in assay [3], in assay [5], in [6] and in assay [7] was > 100 µM throughout. Further, the total growth inhibition concentration (TGI) in assay [8] was > 100 µM; in [9] it was > 100 µM; in assay [10], 77.2 µM.

As for `O=C1c2ccccc2C(=O)c2sc(Nc3ccccc3C(F)(F)F)nc21`, the total growth inhibition concentration (TGI) was > 100 µM in [1]; 45.8 µM in assay [2]; 45.9 µM in assay [3]; > 100 µM in [4]; 24.4 µM in [5]; 57.2 µM in [6]. Also, the figures for the TGI in [7], in assay [8] and in assay [10] were 28.2 µM, 42.8 µM and 34.5 µM, respectively.

Consider `Cc1ccc2c(=O)c(C(=O)Nn3c(C)csc3=S)c[nH]c2n1`, for which the TGI in [1], in [3], in assay [4], in assay [5], in assay [6] and in assay [7] was > 100 µM each time. In addition, the TGI in [8], in [9] and in [10] was > 100 µM each time.

Consider `CCCCCCNC(=O)CCC(NC(=O)c1ccc(N(C)Cc2cnc3nc(N)nc(N)c3n2)cc1)C(=O)NCCCCCC` (stereo not drawn), for which the TGI in [1] is > 100 µM; in assay [3], 34.1 µM; in [4] it was > 100 µM; in assay [5], > 100 µM; in assay [6], > 100 µM; in assay [7], > 100 µM. For the same compound, the TGI in [8] was > 100 µM; in [9] it was > 100 µM; in assay [10] it was 97.2 µM.

Consider `O=C1C=C2SC3C[C@@]24CC1[N+]1=c2c4c(c(O)c4c2=C(C=N4)CC1)N3`, for which the TGI in [1] turned out to be 6.65 µM; in assay [2], 3.34 µM; in assay [3], 4.23 µM; in [4], 2.99 µM; in assay [5], 5.44 µM; in assay [6], 21.2 µM. For the same compound, the TGI was 32.6 µM in assay [7], > 26 µM in [9] and 6.48 µM in [10].

As for `C[n+]1c(-c2ccc(/C=N/Nc3ccnc(N/N=C/c4ccc(-c5cn6ccsc6[n+]5C)cc4)n3)cc2)cn2ccsc21`, the TGI is > 100 µM in [2]; > 100 µM in assay [3]; > 100 µM in [4]; > 100 µM in assay [5]; 91.2 µM in [6]; 80.2 µM in assay [7]. Besides, the TGI in [8], in assay [9] and in assay [10] was > 100 µM throughout.

`O=C(CCCCCC(=O)N1CC(CCl)c2ccc([N+](=O)[O-])cc21)N1CC(CCl)c2ccc([N+](=O)[O-])cc21` (stereo not drawn): the total growth inhibition concentration (TGI) in [1], in assay [2], in assay [3], in assay [4], in assay [5] and in [7] was > 100 µM throughout. For the same compound, the TGI in assay [8] and in [10] was > 100 µM in each case.

By TGI is commonly meant the concentration at which net growth stops.
